PubChem BioAssay (NCI)
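Five concentrations, 48 hours, 96-well plates. TGI marks complete inhibition of growth.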

What was measured:
Experiment in all cases: inhibition of tumour cell growth, NCI panel, 48 h
[1] = system: 786-0 renal
[2] = system: A498 renal
[3] = system: A549 NSCLC
[4] = system: ACHN renal
[5] = system: CAKI-1 renal
[6] = system: CCRF-CEM leukemia
[7] = system: COLO 205 colon
[8] = system: DLD-1 colon
[9] = system: DMS 114 small cell lung
[10] = system: DMS 273 small cell lung
[11] = system: EKVX NSCLC
[12] = system: HCC-2998 colon
[13] = system: HCT-116 colon
[14] = system: HCT-15 colon
[15] = system: HL-60(TB) leukemia
[16] = system: HOP-18 NSCLC
[17] = system: HOP-62 NSCLC
[18] = system: HOP-92 NSCLC
[19] = system: HT29 colon
[20] = system: IGROV1 ovarian
[21] = system: K-562 leukemia
[22] = system: KM12 colon
[23] = system: KM20L2 colon
[24] = system: LOX IMVI melanoma
[25] = system: LXFL 529 NSCLC
[26] = system: M14 melanoma
[27] = system: M19-MEL melanoma
[28] = system: MALME-3M melanoma
[29] = system: MOLT-4 leukemia
[30] = system: NCI-H226 lung
[31] = system: NCI-H23 lung
[32] = system: NCI-H460 lung
[33] = system: OVCAR-3 ovarian
[34] = system: OVCAR-4 ovarian
[35] = system: OVCAR-5 ovarian
[36] = system: OVCAR-8 ovarian
[37] = system: RPMI-8226 leukemia
[38] = system: RXF 393 renal
[39] = system: SF-268 CNS
[40] = system: SF-295 CNS
[41] = system: SF-539 CNS
[42] = system: SK-MEL-2 melanoma
[43] = system: SK-MEL-28 melanoma
[44] = system: SK-MEL-5 melanoma
[45] = system: SK-OV-3 ovarian
[46] = system: SN12C renal
[47] = system: SNB-19 CNS
[48] = system: SNB-75 CNS
[49] = system: SNB-78 CNS
[50] = system: SR leukemia
[51] = system: SW-620 colon
[52] = system: TK-10 renal
[53] = system: U251 CNS
[54] = system: UACC-257 melanoma
[55] = system: UACC-62 melanoma
[56] = system: UO-31 renal
[57] = system: NCI-H522 lung
[58] = system: RXF-631 renal
[59] = system: XF 498 CNS

CN/N=C(\C(=O)Nc1ccc([N+](=O)[O-])cc1[N+](=O)[O-])C1NC(=O)NC1=O (centres undefined)
TGI [1]: > 100 µM | TGI [2]: > 100 µM | TGI [3]: > 100 µM | TGI [4]: > 100 µM | TGI [5]: > 100 µM | TGI [6]: > 100 µM | TGI [7]: > 100 µM | TGI [8]: > 100 µM | TGI [9]: > 100 µM | TGI [10]: > 100 µM | TGI [11]: > 100 µM | TGI [12]: > 100 µM | TGI [13]: > 100 µM | TGI [14]: > 100 µM | TGI [15]: > 100 µM | TGI [16]: > 100 µM | TGI [17]: > 100 µM | TGI [18]: > 100 µM | TGI [19]: > 100 µM | TGI [20]: > 100 µM | TGI [21]: > 100 µM | TGI [22]: > 100 µM | TGI [23]: > 100 µM | TGI [24]: > 100 µM | TGI [25]: > 100 µM | TGI [26]: > 100 µM | TGI [27]: > 100 µM | TGI [28]: > 100 µM | TGI [29]: > 100 µM | TGI [30]: > 100 µM | TGI [31]: > 100 µM | TGI [32]: > 100 µM | TGI [33]: > 100 µM | TGI [34]: > 100 µM | TGI [35]: > 100 µM | TGI [36]: > 100 µM | TGI [37]: > 100 µM | TGI [38]: > 100 µM | TGI [39]: > 100 µM | TGI [40]: > 100 µM | TGI [41]: > 100 µM | TGI [42]: > 100 µM | TGI [43]: > 100 µM | TGI [44]: > 100 µM | TGI [45]: > 100 µM | TGI [46]: > 100 µM | TGI [47]: > 100 µM | TGI [48]: > 100 µM | TGI [49]: > 100 µM | TGI [50]: > 100 µM | TGI [51]: > 100 µM | TGI [52]: > 100 µM | TGI [53]: 96.1 µM | TGI [54]: > 100 µM | TGI [55]: > 100 µM | TGI [56]: > 100 µM

c1ccc(COc2cccc3cccnc23)cc1
TGI [1]: > 100 µM | TGI [3]: > 100 µM | TGI [4]: > 100 µM | TGI [6]: > 100 µM | TGI [7]: > 100 µM | TGI [8]: > 100 µM | TGI [9]: > 100 µM | TGI [11]: > 100 µM | TGI [12]: > 100 µM | TGI [13]: > 100 µM | TGI [15]: 57.5 µM | TGI [16]: > 100 µM | TGI [17]: > 100 µM | TGI [18]: > 100 µM | TGI [19]: > 100 µM | TGI [20]: > 100 µM | TGI [21]: > 100 µM | TGI [22]: > 100 µM | TGI [23]: > 100 µM | TGI [24]: > 100 µM | TGI [25]: > 100 µM | TGI [26]: > 100 µM | TGI [27]: > 100 µM | TGI [28]: > 100 µM | TGI [29]: > 100 µM | TGI [30]: > 100 µM | TGI [31]: > 100 µM | TGI [32]: > 100 µM | TGI [57]: > 100 µM | TGI [33]: > 100 µM | TGI [34]: > 100 µM | TGI [35]: > 100 µM | TGI [36]: > 100 µM | TGI [37]: > 100 µM | TGI [38]: > 100 µM | TGI [58]: > 100 µM | TGI [39]: 88.4 µM | TGI [40]: > 100 µM | TGI [41]: > 100 µM | TGI [43]: > 100 µM | TGI [44]: > 100 µM | TGI [45]: > 100 µM | TGI [46]: > 100 µM | TGI [47]: > 100 µM | TGI [48]: > 100 µM | TGI [51]: > 100 µM | TGI [52]: > 100 µM | TGI [54]: > 100 µM | TGI [55]: > 100 µM | TGI [56]: > 100 µM | TGI [59]: > 100 µM

Cc1ccc(SCC(O)=C2C(=O)CCCC2=O)cc1
TGI [1]: > 100 µM | TGI [3]: > 100 µM | TGI [4]: > 100 µM | TGI [5]: > 100 µM | TGI [6]: > 100 µM | TGI [7]: > 100 µM | TGI [8]: > 100 µM | TGI [9]: > 100 µM | TGI [10]: > 100 µM | TGI [11]: > 100 µM | TGI [13]: > 100 µM | TGI [14]: > 100 µM | TGI [15]: > 100 µM | TGI [16]: > 100 µM | TGI [17]: > 100 µM | TGI [18]: > 100 µM | TGI [19]: > 100 µM | TGI [20]: > 100 µM | TGI [21]: > 100 µM | TGI [22]: > 100 µM | TGI [23]: > 100 µM | TGI [24]: > 100 µM | TGI [25]: > 100 µM | TGI [26]: > 100 µM | TGI [27]: > 100 µM | TGI [28]: > 100 µM | TGI [29]: > 100 µM | TGI [30]: > 100 µM | TGI [31]: > 100 µM | TGI [32]: > 100 µM | TGI [57]: > 100 µM | TGI [33]: > 100 µM | TGI [34]: > 100 µM | TGI [35]: > 100 µM | TGI [36]: > 100 µM | TGI [37]: > 100 µM | TGI [38]: > 100 µM | TGI [58]: > 100 µM | TGI [39]: > 100 µM | TGI [40]: > 100 µM | TGI [41]: > 100 µM | TGI [42]: > 100 µM | TGI [43]: > 100 µM | TGI [44]: > 100 µM | TGI [45]: > 100 µM | TGI [46]: > 100 µM | TGI [47]: > 100 µM | TGI [48]: > 100 µM | TGI [49]: > 100 µM | TGI [50]: > 100 µM | TGI [51]: > 100 µM | TGI [52]: > 100 µM | TGI [53]: > 100 µM | TGI [54]: > 100 µM | TGI [55]: > 100 µM | TGI [56]: > 100 µM | TGI [59]: > 100 µM
